Values after ≈ are worked out from the molar mass of the structure shown.
What was measured:
J774.1 = assay: Antiinflammatory activity in mouse J774.1 cells assessed as inhibition of LPS-induced NO production at 10 microg/ml incubated for 48 hrs by Griess reagent based analysis; assay type: functional
RAW264.7 [1] = assay: Antiinflammatory activity in mouse RAW264.7 cells assessed as inhibition of LPS-induced NO production at 3 to 100 uM preincubated for 2 hrs followed by LPS stimulation and measured after 24 hrs by Griess method; assay type: functional; settings: dose 3-100 µM, time 26 hrs
RAW264.7 [2] = assay: Antiinflammatory activity in mouse RAW264.7 cells assessed as inhibition of LPS-induced TNFalpha production at 3 to 100 uM preincubated for 2 hrs followed by LPS stimulation and measured after 24 hrs by ELISA; assay type: functional; settings: dose 3-100 µM, time 26 hrs
RAW264.7 [3] = assay: Antiinflammatory activity in mouse RAW264.7 cells assessed as inhibition of LPS-induced IL-6 production at 3 to 100 uM preincubated for 2 hrs followed by LPS stimulation and measured after 24 hrs by ELISA; assay type: functional; settings: dose 3-100 µM, time 26 hrs
HUVEC [4] = assay: Antiinflammatory activity in human HUVEC cells assessed as TNFalpha induced VCAM-1 expression at 5 to 20 uM preincubated for 1 hrs followed by TNFalpha stimulation and measured after 6 hrs by fluorescence analysis; assay type: functional; settings: dose 5-20 µM, time 7 hrs
HUVEC [5] = assay: Antiinflammatory activity in human HUVEC cells assessed as LPS induced VCAM-1 expression at 5 to 20 uM preincubated for 1 hrs followed by LPS stimulation and measured after 6 hrs by fluorescence analysis; assay type: functional; settings: dose 5-20 µM, time 7 hrs
HUVEC [6] = assay: Antiinflammatory activity in human HUVEC cells assessed as TNFalpha induced NF-kappaB transactivation at 5 to 20 uM preincubated for 1 hrs followed by TNFalpha stimulation and measured after 6 hrs by fluorescence analysis; assay type: functional; settings: dose 5-20 µM, time 7 hrs
HUVEC [7] = assay: Antiinflammatory activity in human HUVEC cells assessed as LPS induced NF-kappaB transactivation at 5 to 20 uM preincubated for 1 hrs followed by LPS stimulation and measured after 6 hrs by fluorescence analysis; assay type: functional; settings: dose 5-20 µM, time 7 hrs
Mus musculus = assay: Antiinflammatory activity in TPA-induced ear edema ICR mouse model assessed as inhibition of ear inflammation at 1 ug, TOP for 30 mins followed by TPA addition and measured after 6 hrs; assay type: functional; settings: dose 1 µg, time 390 min, 6.5 h
RAW264.7 [8] = assay: Antiinflammatory activity in mouse RAW264.7 cells assessed as inhibition of LPS-induced NO production; assay type: functional, cell-based
RAW264.7 [9] = assay: Antiinflammatory activity in mouse RAW264.7 cells assessed as inhibition of LPS-induced IL-1beta expression at 5 ug/ml; assay type: functional
RAW264.7 [10] = assay: Antiinflammatory activity in mouse RAW264.7 cells assessed as inhibition of LPS-induced TNFalpha expression at 5 ug/ml; assay type: functional
RAW264.7 [11] = assay: Antiinflammatory activity in mouse RAW264.7 cells assessed as inhibition of LPS-induced COX-2 expression at 5 ug/ml; assay type: functional
RAW264.7 [12] = assay: Antiinflammatory activity in mouse RAW264.7 cells assessed as inhibition of LPS-induced NF-kappaB expression at 5 ug/ml; assay type: functional
RAW264.7 [13] = assay: Antiinflammatory activity in mouse RAW264.7 cells assessed as inhibition of LPS-induced iNOS expression at 5 ug/ml; assay type: functional
Hep 3B2 [14] = assay: Antiinflammatory activity in human Hep3B cells assessed as inhibition of IL-6 stimulated ICAM-1 mRNA expression at 30 uM preincubated for 60 mins followed by IL-6 stimulation and measured after 20 mins by RT-PCR analysis; assay type: functional; settings: 1.333 h, time 80 min
Hep 3B2 [15] = assay: Antiinflammatory activity in human Hep3B cells assessed as inhibition of IL-6 stimulated CRP mRNA expression at 30 uM preincubated for 60 mins followed by IL-6 stimulation and measured after 20 mins by RT-PCR analysis; assay type: functional; settings: 1.333 h, time 80 min
Hep 3B2 [16] = assay: Antiinflammatory activity in human Hep3B cells assessed as inhibition of IL-6 stimulated IL-1beta mRNA expression at 30 uM preincubated for 60 mins followed by IL-6 stimulation and measured after 20 mins by RT-PCR analysis; assay type: functional; settings: 1.333 h, time 80 min
Hep 3B2 [17] = assay: Antiinflammatory activity in human Hep3B cells assessed as inhibition of IL-6 stimulated SOCS3 mRNA expression at 30 uM preincubated for 60 mins followed by IL-6 stimulation and measured after 20 mins by RT-PCR analysis; assay type: functional; settings: 1.333 h, time 80 min

In the case of `COc1cc(O)c([C@H]2C[C@H](CCc3ccc(O)cc3)O[C@@H](c3ccc(O)cc3)[C@H]2O)c(O)c1C(=O)/C=C/c1ccc(O)cc1`, the inhibition at 10 µg/mL (J774.1) is reported as 37.6%.

In the case of `COc1cc2ccc1Oc1cc(ccc1O)CC[C@H](O[C@@H]1O[C@H](CO)[C@@H](O)[C@H](O)[C@H]1O)CC(=O)CC2`, the “inhibition (INH)” value (RAW264.7 [1]) is reported as 32.7%, the “inhibition (INH)” value (RAW264.7 [2]) is reported as 44.1% and the “inhibition (INH)” value (RAW264.7 [3]) is reported as 29.2%.

Work on `COc1cc(CC/C=C/C(=O)CCc2ccc(O)c(OC)c2)ccc1O` yielded an Activity (HUVEC [4]) of 26%, an Activity (HUVEC [5]) of 17% and an Activity (HUVEC [6]) of 7%. For the same molecule, the Activity (HUVEC [7]) was 8%.

`O=C(/C=C/CCc1ccc(O)cc1)CCc1ccccc1` was tested, and the ID50 (Mus musculus) was 0.8 µmol, the IC50 (RAW264.7 [8]) was 5 µg/mL (≈ 17.8 µM) and the inhibition at 5 µg/mL (RAW264.7 [9]) was 70%. It also gave an inhibition at 5 µg/mL (RAW264.7 [10]) of 71%, an inhibition at 5 µg/mL (RAW264.7 [11]) of 69% and an inhibition at 5 µg/mL (RAW264.7 [12]) of 50%. The inhibition at 5 µg/mL (RAW264.7 [13]) was 69%.

Molecule `COc1ccc(/C=C/C(C[C@H](O)CCc2ccc(OC)c(OC)c2)OC)cc1OC` (some centres undefined) has an inhibition at 30 µM (Hep 3B2 [14]) of 76%, an inhibition at 30 µM (Hep 3B2 [15]) of 91% and an inhibition at 30 µM (Hep 3B2 [16]) of 91%. For the same molecule, the inhibition at 30 µM (Hep 3B2 [17]) was 91%.

Source: ChEMBL document CHEMBL5233262, “Anti-inflammatory activity of naturally occuring diarylheptanoids - A review” (Bioorg Med Chem, 2021)
